Data taken from paper PMC10221469 (Viruses, 2023).
Read-outs that look alike come from different tables or passages of the source.

How the values were obtained:
SARS-CoV-2 [1] = experiment: microbe, parasite or virus in culture; type: cell-based; details: Severe acute respiratory syndrome coronavirus 2, Vero C1008; read-out: CPE IC50
SARS-CoV-2 [2] = experiment: qPCR readout of viral replication in Vero E6 cells; type: cell-based; details: Severe acute respiratory syndrome coronavirus 2, Vero C1008, viral replication by qPCR
in vitro [3] = details: african green monkey
SARS-CoV-2 [4] = experiment: microbe, parasite or virus in culture; type: cell-based; details: for IC50: read-out: IC50 (anti-viral activity)
SARS-CoV-2 nsp13 = SARS-CoV-2 nsp13 (Severe acute respiratory syndrome coronavirus 2, UniProt P0DTD1); experiment: biochemical; details: 1 nM nsp13, 1 mM ATP, 15 min at 37 °C; unit printed in b45 only; read-out: IC50 nsp13 helicase unwinding activity
A549 ACE2+ cells = details: 48 h, CellTiter-Glo
in vitro [5] = details: human, CC50, A549 ACE2+ cells, 48 h, CellTiter-Glo
SARS-CoV-2 [6] = experiment: microbe, parasite or virus in culture; type: cell-based; details: Severe acute respiratory syndrome coronavirus 2, A549 ACE2+ cells, 48 h p.i., read-out: inhibition of viral titer (plaque reduction)
serine protease TMPRSS2 = target: T1, serine protease TMPRSS2 (Homo sapiens, UniProt O15393); experiment: TMPRSS2 inhibition (Axxam S.p.A. proprietary assay); type: biochemical
T1 construct: Axxam S.p.A. (assay provider)
T1 sequence (O15393 whole entry): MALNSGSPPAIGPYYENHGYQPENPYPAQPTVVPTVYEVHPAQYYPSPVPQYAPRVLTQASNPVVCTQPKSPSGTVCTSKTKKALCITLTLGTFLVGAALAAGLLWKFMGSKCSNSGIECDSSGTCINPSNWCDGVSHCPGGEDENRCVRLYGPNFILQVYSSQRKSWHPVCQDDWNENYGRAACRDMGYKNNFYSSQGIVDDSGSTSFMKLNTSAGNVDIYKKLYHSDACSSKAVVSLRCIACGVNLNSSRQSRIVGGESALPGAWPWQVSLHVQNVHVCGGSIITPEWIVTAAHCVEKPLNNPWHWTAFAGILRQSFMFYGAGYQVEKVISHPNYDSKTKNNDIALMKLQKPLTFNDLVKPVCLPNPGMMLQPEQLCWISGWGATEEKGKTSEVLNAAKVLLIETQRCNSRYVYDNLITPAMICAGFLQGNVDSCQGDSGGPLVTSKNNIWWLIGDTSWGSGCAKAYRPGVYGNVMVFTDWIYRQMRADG

[7] = Severe acute respiratory syndrome coronavirus 2, A549-ACE2, 48 h
[8] = ratio of CC50 over IC50, A549 ACE2+ cells

Row | SMILES | IC50 (SARS-CoV-2 [1]) [nM] | IC50 (SARS-CoV-2 [2]) [nM] | CC50 (in vitro [3]) [nM] | SI (selectivity index) (SARS-CoV-2 [4]) | IC50 (SARS-CoV-2 [4]; [7]) [nM] | IC50 (SARS-CoV-2 [4]) [nM] | IC50 (SARS-CoV-2 nsp13) [nM] | CC50 (A549 ACE2+ cells) [nM] | CC50 (in vitro [5]) [nM] | inhibition at 0.019 µM (SARS-CoV-2 [6]) [%] | inhibition at 0.039 µM (SARS-CoV-2 [6]) [%] | IC50 (serine protease TMPRSS2) [nM] | SI (selectivity index) (SARS-CoV-2 [4]; [8]) | inhibition at 0.009 µM (SARS-CoV-2 [6]; 0.009 µM) [%] | inhibition at 1.25 µM (SARS-CoV-2 [6]; 1.25 µM) [%] | inhibition at 2.5 µM (SARS-CoV-2 [6]; 2.5 µM) [%]
1 | CCC(CC)COC(=O)[C@H](C)N[P@](=O)(OC[C@H]1O[C@@](C#N)(c2ccc3c(N)ncnn23)[C@H](O)[C@@H]1O)Oc1ccccc1 [Remdesivir] | 2740 | 3200 | > 33000 | – | – | – | – | – | – | – | – | – | – | – | – | –
2 | Nc1nc(N)c2nc(CNc3ccc(C(=O)N[C@@H](CCC(=O)O)C(=O)O)cc3)cnc2n1 [Aminopterin] | 330 | 80 | > 33000 | 1.9 | > 1500 | 1300 | 2590 | 2490 | > 2000 | – | – | – | – | – | – | –
3 | C#CCC(Cc1cnc2nc(N)nc(N)c2n1)c1ccc(C(=O)N[C@@H](CCC(=O)O)C(=O)O)cc1 (stereo partly drawn) [Pralatrexate] | 50 | 80 | > 33000 | 2 | 4 | – | 140 | – | 8 | 90.4 | 96.5 | 450 | – | – | – | –
4 | Nc1nc2[nH]cc(CCc3ccc(C(=O)N[C@@H](CCC(=O)O)C(=O)O)cc3)c2c(=O)[nH]1 [Pemetrexed disodium heptahydrate] | – | – | – | – | – | 5000 | – | 2430 | > 2000 | – | – | – | – | – | – | –
5 | COc1cc(NCc2ccc3nc(N)nc(N)c3c2C)cc(OC)c1OC [Trimetrexate] | 340 | 80 | > 33000 | – | 7 | – | 1560 | – | 10 | 97.5 | 96.5 | > 30000 | 1.4 | 86 | – | –
6 | CN(Cc1cnc2nc(N)nc(N)c2n1)c1ccc(C(=O)N[C@@H](CCC(=O)O)C(=O)O)cc1 [Methotrexate hydrate] | 2810 | 440 | > 33000 | – | 630 | – | 2030 | – | 1180 | – | – | > 30000 | – | – | 94 | 98
7 | Cc1nc2ccc(CN(C)c3ccc(C(=O)N[C@@H](CCC(=O)O)C(=O)O)s3)cc2c(=O)[nH]1 [Raltitrexed] | – | – | – | – | – | – | 3220 | – | 890 | – | – | – | 0.2 | – | – | –
